Results as given in article PMC4385830, “Group I Paks as therapeutic targets in NF2-deficient meningioma” (Oncotarget, 2015).

Columns and labels:
Experiment in all cases: Kinase selectivity, Z'-LYTE
Assay type in all cases: biochemical
PTK1 (FAK) = biological target: T1, PTK1 (FAK) (Homo sapiens, UniProt Q05397)
T1 construct: purchased Invitrogen (Life Technologies) SelectScreen Z'-LYTE
Protocol: (§1) Kinase selectivity was assessed using a commercial service that employs a fluorescence-based, coupled-enzyme assay based on the differential sensitivity of phosphorylated and non-phosphorylated peptides to proteolytic cleavage (Invitrogen, Z'-LYTE®). This assay uses recombinant protein kinases and assay mixed optimized for each particular kinase (http://www.lifetechnologies.com/us/en/home/life-science/drug-discovery/target-and-lead-identification-and-validation /kinasebiology/kinase-activity-assays/z-lyte.html).

PAK2 (PAK65) = biological target: T2, PAK2 (PAK65) (Homo sapiens, UniProt Q13177)
T2 construct: purchased Invitrogen (Life Technologies) SelectScreen Z'-LYTE
T2 sequence (Q13177 whole entry): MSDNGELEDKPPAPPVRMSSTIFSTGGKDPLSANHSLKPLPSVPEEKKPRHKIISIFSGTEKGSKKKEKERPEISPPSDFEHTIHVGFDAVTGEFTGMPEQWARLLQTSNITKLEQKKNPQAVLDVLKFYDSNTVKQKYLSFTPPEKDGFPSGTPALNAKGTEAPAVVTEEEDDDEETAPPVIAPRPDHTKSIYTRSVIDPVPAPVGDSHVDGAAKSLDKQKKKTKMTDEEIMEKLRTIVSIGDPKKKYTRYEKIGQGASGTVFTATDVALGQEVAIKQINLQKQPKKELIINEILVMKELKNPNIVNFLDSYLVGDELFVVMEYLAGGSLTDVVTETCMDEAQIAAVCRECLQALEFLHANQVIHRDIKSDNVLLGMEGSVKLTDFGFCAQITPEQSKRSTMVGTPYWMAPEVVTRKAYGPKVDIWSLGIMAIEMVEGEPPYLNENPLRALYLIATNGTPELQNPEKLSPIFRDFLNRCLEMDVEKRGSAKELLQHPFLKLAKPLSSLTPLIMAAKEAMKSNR
Protocol: as §1

AXL = biological target: T3, AXL (Homo sapiens, UniProt P30530)
T3 construct: purchased Invitrogen (Life Technologies) SelectScreen Z'-LYTE
T3 sequence (P30530 26-894): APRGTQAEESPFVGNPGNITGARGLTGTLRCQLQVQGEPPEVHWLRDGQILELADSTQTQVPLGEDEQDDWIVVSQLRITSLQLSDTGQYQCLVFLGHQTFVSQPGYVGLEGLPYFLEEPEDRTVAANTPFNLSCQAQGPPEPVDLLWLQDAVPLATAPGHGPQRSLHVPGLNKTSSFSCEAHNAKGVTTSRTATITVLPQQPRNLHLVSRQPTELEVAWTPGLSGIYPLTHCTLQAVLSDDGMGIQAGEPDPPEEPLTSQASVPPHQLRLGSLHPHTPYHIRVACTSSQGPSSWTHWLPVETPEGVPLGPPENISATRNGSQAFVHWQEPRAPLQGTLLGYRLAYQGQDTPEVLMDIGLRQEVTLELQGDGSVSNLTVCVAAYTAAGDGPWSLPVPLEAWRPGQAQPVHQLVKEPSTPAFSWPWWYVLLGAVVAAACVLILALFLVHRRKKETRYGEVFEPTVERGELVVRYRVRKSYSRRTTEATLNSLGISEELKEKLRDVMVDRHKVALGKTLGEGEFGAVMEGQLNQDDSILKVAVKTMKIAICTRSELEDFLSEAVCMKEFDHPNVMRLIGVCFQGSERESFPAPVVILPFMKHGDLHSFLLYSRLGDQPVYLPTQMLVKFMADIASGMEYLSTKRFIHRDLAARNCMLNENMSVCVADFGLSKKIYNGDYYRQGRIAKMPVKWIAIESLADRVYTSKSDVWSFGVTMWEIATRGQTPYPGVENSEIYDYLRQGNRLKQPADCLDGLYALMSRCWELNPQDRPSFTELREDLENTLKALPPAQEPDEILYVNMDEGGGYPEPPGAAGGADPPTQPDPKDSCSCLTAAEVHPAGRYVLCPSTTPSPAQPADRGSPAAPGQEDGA
Protocol: as §1

G3K3B (G3K3 beta) = biological target: T4, G3K3B (G3K3 beta) (Homo sapiens, UniProt P49841)
T4 construct: purchased Invitrogen (Life Technologies) SelectScreen Z'-LYTE
Protocol: as §1

TYK2 = biological target: T5, TYK2 (Homo sapiens, UniProt P29597)
T5 construct: purchased Invitrogen (Life Technologies) SelectScreen Z'-LYTE
T5 sequence (P29597 whole entry): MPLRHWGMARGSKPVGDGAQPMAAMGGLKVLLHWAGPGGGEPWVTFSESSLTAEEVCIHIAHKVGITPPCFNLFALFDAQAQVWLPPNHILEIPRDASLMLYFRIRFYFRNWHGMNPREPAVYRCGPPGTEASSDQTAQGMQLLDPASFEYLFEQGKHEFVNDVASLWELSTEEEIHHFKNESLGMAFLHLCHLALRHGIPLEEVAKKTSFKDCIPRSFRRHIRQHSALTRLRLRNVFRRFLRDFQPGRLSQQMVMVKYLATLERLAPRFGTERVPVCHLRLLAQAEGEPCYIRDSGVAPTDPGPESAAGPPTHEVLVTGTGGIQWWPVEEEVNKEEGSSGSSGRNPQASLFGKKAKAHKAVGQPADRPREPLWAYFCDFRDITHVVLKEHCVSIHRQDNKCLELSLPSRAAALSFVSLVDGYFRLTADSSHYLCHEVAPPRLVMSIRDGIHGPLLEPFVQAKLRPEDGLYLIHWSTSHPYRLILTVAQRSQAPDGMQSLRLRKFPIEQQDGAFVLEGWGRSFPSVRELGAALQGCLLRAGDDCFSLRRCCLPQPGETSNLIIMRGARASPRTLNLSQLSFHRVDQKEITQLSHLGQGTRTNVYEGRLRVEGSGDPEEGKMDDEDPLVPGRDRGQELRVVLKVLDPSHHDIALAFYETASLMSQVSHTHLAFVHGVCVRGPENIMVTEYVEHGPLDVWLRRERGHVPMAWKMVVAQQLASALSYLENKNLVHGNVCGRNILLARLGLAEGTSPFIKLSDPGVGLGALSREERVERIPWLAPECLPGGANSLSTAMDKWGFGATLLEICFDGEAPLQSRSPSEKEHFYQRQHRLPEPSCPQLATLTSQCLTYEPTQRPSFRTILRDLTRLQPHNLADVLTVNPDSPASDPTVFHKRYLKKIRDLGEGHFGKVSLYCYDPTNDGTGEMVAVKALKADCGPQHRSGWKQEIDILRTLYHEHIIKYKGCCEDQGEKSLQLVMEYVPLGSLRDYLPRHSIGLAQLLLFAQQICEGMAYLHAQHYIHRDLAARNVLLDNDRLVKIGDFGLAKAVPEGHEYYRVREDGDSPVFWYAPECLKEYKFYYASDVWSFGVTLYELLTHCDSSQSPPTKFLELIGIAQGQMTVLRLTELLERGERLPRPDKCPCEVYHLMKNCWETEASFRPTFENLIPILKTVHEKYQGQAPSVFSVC
Protocol: as §1

G3K3A (G3K3 alpha) = biological target: T6, G3K3A (G3K3 alpha) (Homo sapiens, UniProt P49840)
T6 construct: purchased Invitrogen (Life Technologies) SelectScreen Z'-LYTE
T6 sequence (P49840 whole entry): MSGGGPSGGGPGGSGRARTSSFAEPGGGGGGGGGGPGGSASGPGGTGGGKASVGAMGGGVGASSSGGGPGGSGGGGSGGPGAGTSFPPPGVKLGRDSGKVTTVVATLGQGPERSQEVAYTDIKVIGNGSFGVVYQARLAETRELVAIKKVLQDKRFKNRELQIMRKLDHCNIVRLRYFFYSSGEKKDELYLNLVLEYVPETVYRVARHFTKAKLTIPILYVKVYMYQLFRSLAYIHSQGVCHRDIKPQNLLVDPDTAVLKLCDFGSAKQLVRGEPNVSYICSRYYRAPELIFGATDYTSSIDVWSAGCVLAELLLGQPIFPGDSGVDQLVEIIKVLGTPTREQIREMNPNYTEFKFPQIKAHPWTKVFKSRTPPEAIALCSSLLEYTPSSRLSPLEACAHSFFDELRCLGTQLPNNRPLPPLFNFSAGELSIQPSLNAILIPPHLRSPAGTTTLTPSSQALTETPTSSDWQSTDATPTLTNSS
Protocol: as §1

ACVR1B (ALK4) = biological target: T7, ACVR1B (ALK4) (Homo sapiens, UniProt P36896)
T7 construct: purchased Invitrogen (Life Technologies) SelectScreen Z'-LYTE
T7 sequence (P36896 24-505): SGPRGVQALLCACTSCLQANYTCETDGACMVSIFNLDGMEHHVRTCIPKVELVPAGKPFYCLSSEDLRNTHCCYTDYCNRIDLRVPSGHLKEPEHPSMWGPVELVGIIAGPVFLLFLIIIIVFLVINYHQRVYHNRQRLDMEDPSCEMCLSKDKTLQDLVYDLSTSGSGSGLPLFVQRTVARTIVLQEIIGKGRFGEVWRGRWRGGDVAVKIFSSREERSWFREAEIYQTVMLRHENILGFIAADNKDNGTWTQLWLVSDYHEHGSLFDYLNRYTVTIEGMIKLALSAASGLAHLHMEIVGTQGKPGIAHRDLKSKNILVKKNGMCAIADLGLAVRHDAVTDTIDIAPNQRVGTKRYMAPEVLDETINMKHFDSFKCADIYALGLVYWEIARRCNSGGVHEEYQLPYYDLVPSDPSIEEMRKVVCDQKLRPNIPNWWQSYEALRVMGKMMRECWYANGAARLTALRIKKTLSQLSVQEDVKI
Protocol: as §1

CHEK1 (CHK1) = biological target: T8, CHEK1 (CHK1) (Homo sapiens, UniProt O14757)
T8 construct: purchased Invitrogen (Life Technologies) SelectScreen Z'-LYTE
T8 sequence (O14757 1-476): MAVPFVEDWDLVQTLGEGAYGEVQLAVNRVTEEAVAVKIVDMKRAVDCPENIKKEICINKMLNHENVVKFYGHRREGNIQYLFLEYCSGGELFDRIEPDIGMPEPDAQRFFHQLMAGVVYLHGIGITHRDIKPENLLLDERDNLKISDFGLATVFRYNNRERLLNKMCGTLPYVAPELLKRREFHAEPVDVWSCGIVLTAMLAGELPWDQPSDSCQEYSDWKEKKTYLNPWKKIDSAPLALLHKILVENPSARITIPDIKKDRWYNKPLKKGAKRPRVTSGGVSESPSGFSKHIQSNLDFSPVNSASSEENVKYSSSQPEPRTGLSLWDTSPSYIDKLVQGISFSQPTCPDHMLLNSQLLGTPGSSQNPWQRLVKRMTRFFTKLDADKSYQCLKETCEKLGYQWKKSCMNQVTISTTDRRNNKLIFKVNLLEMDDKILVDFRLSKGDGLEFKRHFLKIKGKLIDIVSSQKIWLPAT
Protocol: as §1

MAPK11 (p38 beta) = biological target: T9, MAPK11 (p38 beta) (Homo sapiens, UniProt Q15759)
T9 construct: purchased Invitrogen (Life Technologies) SelectScreen Z'-LYTE
T9 sequence (Q15759 whole entry): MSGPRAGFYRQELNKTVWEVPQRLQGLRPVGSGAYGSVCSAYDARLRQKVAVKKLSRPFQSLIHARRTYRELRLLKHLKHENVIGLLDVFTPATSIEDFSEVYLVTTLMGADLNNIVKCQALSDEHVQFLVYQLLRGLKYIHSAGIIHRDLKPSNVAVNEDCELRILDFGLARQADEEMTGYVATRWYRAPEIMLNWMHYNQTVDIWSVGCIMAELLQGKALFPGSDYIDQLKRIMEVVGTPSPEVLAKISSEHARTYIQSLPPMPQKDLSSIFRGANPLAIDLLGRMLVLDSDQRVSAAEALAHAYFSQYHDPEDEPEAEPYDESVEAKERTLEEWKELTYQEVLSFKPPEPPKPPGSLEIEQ
Protocol: as §1

CDK1/cyclin B = biological target: T10, CDK1/cyclin B (Homo sapiens, UniProt P06493)
T10 construct: purchased Invitrogen (Life Technologies) SelectScreen Z'-LYTE
T10 sequence (P06493 whole entry): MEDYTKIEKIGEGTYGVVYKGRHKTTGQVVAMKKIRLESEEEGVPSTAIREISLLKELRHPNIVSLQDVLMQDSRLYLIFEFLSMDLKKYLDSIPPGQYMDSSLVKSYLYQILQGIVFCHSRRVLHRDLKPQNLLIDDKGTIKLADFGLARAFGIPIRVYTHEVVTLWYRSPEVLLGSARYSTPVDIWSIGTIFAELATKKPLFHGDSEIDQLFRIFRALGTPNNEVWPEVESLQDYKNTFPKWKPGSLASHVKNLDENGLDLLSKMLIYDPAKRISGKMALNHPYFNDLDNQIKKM
T10 sequence (P14635 whole entry partner): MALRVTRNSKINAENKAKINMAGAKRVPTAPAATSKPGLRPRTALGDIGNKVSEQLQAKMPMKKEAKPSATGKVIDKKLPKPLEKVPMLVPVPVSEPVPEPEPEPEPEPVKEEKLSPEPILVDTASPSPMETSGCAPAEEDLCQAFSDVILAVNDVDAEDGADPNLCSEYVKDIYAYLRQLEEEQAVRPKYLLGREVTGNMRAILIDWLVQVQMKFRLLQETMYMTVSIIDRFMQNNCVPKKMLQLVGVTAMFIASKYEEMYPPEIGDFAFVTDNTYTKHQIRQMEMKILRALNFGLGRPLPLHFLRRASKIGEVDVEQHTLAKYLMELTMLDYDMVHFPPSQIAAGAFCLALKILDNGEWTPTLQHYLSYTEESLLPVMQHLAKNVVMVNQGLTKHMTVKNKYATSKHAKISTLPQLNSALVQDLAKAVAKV
Protocol: as §1

CSNK1D (CK1 delta) = biological target: T11, CSNK1D (CK1 delta) (Homo sapiens, UniProt P48730)
T11 construct: purchased Invitrogen (Life Technologies) SelectScreen Z'-LYTE
T11 sequence (P48730 whole entry): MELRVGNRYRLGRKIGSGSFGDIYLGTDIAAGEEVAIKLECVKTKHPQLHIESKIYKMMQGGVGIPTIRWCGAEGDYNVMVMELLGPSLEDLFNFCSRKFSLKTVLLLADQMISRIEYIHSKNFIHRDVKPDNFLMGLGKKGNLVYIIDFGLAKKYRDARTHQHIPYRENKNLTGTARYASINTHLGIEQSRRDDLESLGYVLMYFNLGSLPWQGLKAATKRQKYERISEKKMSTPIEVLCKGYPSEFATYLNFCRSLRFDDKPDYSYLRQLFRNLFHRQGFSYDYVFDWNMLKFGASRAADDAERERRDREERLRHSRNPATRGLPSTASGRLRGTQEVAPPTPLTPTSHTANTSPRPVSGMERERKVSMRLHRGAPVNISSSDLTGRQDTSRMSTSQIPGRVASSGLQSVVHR
Protocol: as §1

T1 sequence (Q05397 whole entry): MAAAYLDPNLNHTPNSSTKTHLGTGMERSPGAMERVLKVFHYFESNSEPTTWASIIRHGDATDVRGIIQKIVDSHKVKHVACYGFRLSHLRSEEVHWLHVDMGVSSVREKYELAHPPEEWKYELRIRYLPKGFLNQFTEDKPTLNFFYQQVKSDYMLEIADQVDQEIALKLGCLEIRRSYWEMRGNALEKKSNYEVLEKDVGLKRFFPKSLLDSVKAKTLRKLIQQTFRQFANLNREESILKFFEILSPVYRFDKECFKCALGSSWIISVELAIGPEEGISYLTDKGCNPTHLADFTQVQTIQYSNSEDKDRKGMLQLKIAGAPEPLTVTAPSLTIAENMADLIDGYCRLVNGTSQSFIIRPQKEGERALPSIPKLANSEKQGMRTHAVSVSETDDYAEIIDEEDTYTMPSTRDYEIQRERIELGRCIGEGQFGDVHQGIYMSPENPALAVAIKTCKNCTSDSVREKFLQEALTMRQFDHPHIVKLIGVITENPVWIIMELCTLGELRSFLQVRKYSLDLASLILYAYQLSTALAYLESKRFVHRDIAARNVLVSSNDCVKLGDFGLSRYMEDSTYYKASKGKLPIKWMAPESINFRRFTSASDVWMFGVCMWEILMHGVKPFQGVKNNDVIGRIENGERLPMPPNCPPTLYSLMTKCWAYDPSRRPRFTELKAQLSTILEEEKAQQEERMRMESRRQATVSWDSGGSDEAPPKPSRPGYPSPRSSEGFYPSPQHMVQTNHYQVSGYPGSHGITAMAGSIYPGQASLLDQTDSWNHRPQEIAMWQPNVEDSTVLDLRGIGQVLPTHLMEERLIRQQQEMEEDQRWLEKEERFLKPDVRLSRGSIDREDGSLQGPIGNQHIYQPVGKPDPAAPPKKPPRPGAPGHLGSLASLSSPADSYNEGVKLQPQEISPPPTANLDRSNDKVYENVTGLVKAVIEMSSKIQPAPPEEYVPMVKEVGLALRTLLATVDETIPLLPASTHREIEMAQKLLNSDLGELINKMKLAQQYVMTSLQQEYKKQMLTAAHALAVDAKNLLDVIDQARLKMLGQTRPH

% inhibition of activity (PTK1 (FAK))	% inhibition of activity (PAK2 (PAK65))	% inhibition of activity (AXL)	% inhibition of activity (G3K3B (G3K3 beta))	% inhibition of activity (TYK2)	% inhibition of activity (G3K3A (G3K3 alpha))	% inhibition of activity (ACVR1B (ALK4))	% inhibition of activity (CHEK1 (CHK1))	% inhibition of activity (MAPK11 (p38 beta))	% inhibition of activity (CDK1/cyclin B)	% inhibition of activity (CSNK1D (CK1 delta))	SMILES
38%	100%	67%	77%	14%	52%	1%	91%	8%	12%	3%	Cc1nc(Nc2[nH]nc3c2CN(C(=O)N[C@H](CN(C)C)c2ccccc2)C3(C)C)c2sccc2n1 [PF3758309, reference compound]
9%	98%	21%	0%	6%	7%	0%	−14%	6%	6%	11%	CCn1c(=O)c(-c2ccc(-c3cncc(C)n3)cc2Cl)cc2cnc(NCCC3CCN(C)CC3)nc21 [Frax1036]

SMILES	% inhibition of activity (PTK1 (FAK))	% inhibition of activity (PAK2 (PAK65))	% inhibition of activity (AXL)	% inhibition of activity (G3K3B (G3K3 beta))	% inhibition of activity (TYK2)	% inhibition of activity (G3K3A (G3K3 alpha))	% inhibition of activity (ACVR1B (ALK4))	% inhibition of activity (CHEK1 (CHK1))	% inhibition of activity (MAPK11 (p38 beta))	% inhibition of activity (CDK1/cyclin B)	% inhibition of activity (CSNK1D (CK1 delta))
CCn1c(=O)c(-c2ccc(-c3noc(C)n3)cc2Cl)cc2cnc(Nc3ccc(C4CCN(C)CC4)cc3)nc21 [Frax716]	22%	100%	45%	14%	54%	−9%	−9%	−2%	2%	3%	6%
